≈ marks a conversion by molar mass, not a printed value. Like-named read-outs stand apart in the source and are kept apart here. Each block holds one compound with its values, some of them ahead of it.
Key:
[1] = cited from earlier work; for Experimental S value: room-temperature, around pH 7.0; for LogS_exp: experimental aqueous solubility: literature S values converted to mol/L and transformed into logS
[2] = Aqueous solubility (pH 7) by modified shake flask method and RP-HPLC; type: physicochemical
Experimental: In one of our drugs discovering projects toward antitumor therapeutics, a series of novel FLT3 inhibitors were designed and synthesized using the structure-based drug design methods. The aqueous solubilities (pH = 7) of these compounds were measured using the modified shake flask method and RP-HPLC ([34], [35]). Each compound was added into a 1.5 mL Eppendorf tube containing Milli-Q water (1 mL) to form the precipitates at 25°C. Then the mixture was subjected to a solubility-equilibrium stage. The tube was shook at 300 rpm at 25°C for 24 h. The precipitate was separated by centrifugation at 23,000 g for 20 min. Subsequently, 0.25 mL of supernatant was transferred into a 1 mL Eppendorf tube, and it was centrifuged again with the same settings used above. The supernatant was then used for HPLC analysis. An Agilent 1260 Infinity LC system (Agilent Technologies, Inc., Santa Clara, California) was used. For HPLC conditions, a ZORBAX SB-C18 column (5 μM, 4.6 × 150 mm; Agilent), a flow rate of 0.8 mL/min for mobile phase, a UV wavelength of 250 nm and a column temperature of 30°C were used. The sample was injected automatically by a mechanical arm and separated by a constant mixture of methanol/PBS (pH 5.6), 90:10. For each compound, a standard curve consisting of four concentrations was established. The synthetic methods of all but compound SC5 and SC6 have been published in literatures ([36]–[39]). The synthetic methods of SC5 and SC6 are described in Supplementary Method 1.

[3] = by HPLC, ref Thompson et al., 2018
[4] = Milli-Q water, pH 7, 25°C, 24 h shaking, RP-HPLC, read-out: Experimental S value
[5] = method NA, ref Hamdy et al., 2017

Structure (SMILES): O=[N+]([O-])c1cn2c(n1)OC[C@H](Oc1ccc(C(F)(F)F)cn1)C2 [NC7]
- Experimental S value [1, 3]: 110 µg/mL

Structure (SMILES): COC1=C/C(=N/NC(=O)c2ccncc2)C[C@@H](C)[C@]12Oc1c(Cl)c(OC)cc(OC)c1C2=O (relative stereo) [NC4]
- LogS_exp: experimental aqueous solubility [1]: -4.576 logarithmic units of mol/L
- Experimental S value [1, 5]: 12.53 µg/mL

Structure (SMILES): COc1cc(OC)c2c(c1Cl)O[C@]1(C2=O)C(OCc2ccccc2)=C/C(=N\OCC(=O)O)C[C@H]1C (relative stereo) [NC5]
- LogS_exp: experimental aqueous solubility [1]: -4.254 logarithmic units of mol/L
- Experimental S value [1, 5]: 27.94 µg/mL

Structure (SMILES): O=C(/C=C(/C=C/c1cccnc1)NCCO)/C=C/c1cccnc1 [NC6]
- Experimental S value ([1]; by shake flask method and colorimetry, ref Theppawong et al., 2018): 4350.8 µM
- LogS_exp: experimental aqueous solubility [1]: -2.361 logarithmic units of mol/L

Structure (SMILES): CN(Cc1ccc(C(F)(F)F)cc1)c1cc(C(=O)Nc2ncn(C)n2)ncn1 [NC2]
- LogS_exp: experimental aqueous solubility [1]: -3.762 logarithmic units of mol/L
- Experimental S value ([1]; method NA, ref Wilson et al., 2017): 173 µM

Structure (SMILES): O=C(Nc1ccccc1OC(F)(F)F)N[C@@H]1COc2nc([N+](=O)[O-])cn2C1 [NC3]
- Experimental S value [1, 3]: 22 µg/mL
- LogS_exp: experimental aqueous solubility [1]: -4.246 logarithmic units of mol/L

Next, values leading:

- solubility thermodynamic at 24 h [2, 4]: 30.7 µg/mL (≈ 174 µM)
Structure (SMILES): N#CCC(=O)c1cc(C#N)cs1 [SC1]

- solubility thermodynamic at 24 h ([2]; pH 7, water): < 10 µg/mL
Structure (SMILES): CN1CCC(Nc2ccc(C(=O)Nc3n[nH]c4cc(Oc5ccccc5)ccc34)cc2)CC1 [SC6]

- solubility thermodynamic at 24 h ([2]; pH 7, water): 31.7 µg/mL (≈ 167 µM)
Structure (SMILES): N#Cc1csc(-c2cc(N)[nH]n2)c1 [SC2]

- Experimental S value ([2]; Milli-Q water, pH 7, 25°C, 24 h shaking, RP-HPLC): 0.10491 mg/mL
- solubility thermodynamic at 24 h [2, 4]: 105 µg/mL (≈ 185 µM)
Structure (SMILES): Cc1nc2c(c(-c3nc(Nc4c[nH]nc4C(=O)Nc4ccc(N5CCNCC5)cc4)c4ccsc4n3)n1)CCCC2 [SC4]

- Experimental S value ([2]; 24 h, pH 7): 0.019714 mg/mL
- solubility thermodynamic at 24 h ([2]; pH 7, water): 19.7 µg/mL (≈ 41.8 µM)
- melting point: 236 to 238 °C
Structure (SMILES): COc1ccc(Oc2ccc3c(NC(=O)c4ccc(NC5CCN(C)CC5)cc4)n[nH]c3c2)cc1 [SC5]

- solubility thermodynamic at 24 h [2, 4]: 60.7 µg/mL (≈ 124 µM)
Structure (SMILES): Cc1nc(Nc2c[nH]nc2C(=O)Nc2ccc(CN3CCOCC3)cc2)c2cc(C(C)C)sc2n1 [SC3]
